Read-outs that look alike come from different tables or passages of the source. A value given as a limit tells only on which side of the number the result lay.

The values below come from PMC12692861, “Biotin-Linked Ursolic Acid Conjugates as Selective Anticancer Agents and Target-Identification Tools for Cancer Therapy” (Molecules, 2025).

For assay [1], the system named is 5637 cells. The assay can be described thus: MTT antiproliferative assay. The format is cell-based, human. The conditions noted are these: for IC50: 72 h, MTT, read-out: IC50 (Mean ± SD), 5637. The protocol:
(§1) The synthesized hybrid conjugates 5a–d were evaluated for their antiproliferative activity against the established human bladder cancer cell lines T24 and 5637. Test compounds were dissolved in ultrapure dimethyl sulfoxide (DMSO), diluted in cell culture media, added to cells cultured in 96-well cluster wells, and incubated for 72 h. The concentration of DMSO in culture media was maintained at < 0.05%. As previously reported, the fraction of viable cells in the culture wells was compared to that in cultures with 0.05% DMSO-only using a colorimetric assay, the Methyl Tetrazolium Bromide (MTT) reduction assay. We determined the selectivity index (SI) of the compounds 5a–d against tumor cells by comparing their cytotoxicity to that of a non-tumorigenic breast epithelial cell line, MCF-12A, as well as a non-tumorigenic, immortalized urothelial cell line, UROtsa (Table 1, and Figure 2).
(§2) The antiproliferative activities of various compounds examined in this report were measured using the MTT (3-[4,5-dimethylthiazol-2-yl]-2,5-diphenyl-tetrazolium bromide) reduction assay, as previously described. Briefly, cells were seeded at 2 × 10^3 cells per well in a 96-well plate and cultured overnight. The cells were then treated with different doses (5 µM, 10 µM, 15 µM, 20 µM, 25 µM, 30 µM, 35 µM, 40 µM in DMSO) for 72 h. Viability of the treated cultures was estimated by conversion of MTT to the insoluble formazan after 3h incubation at 37 °C and 5% CO2. The purple-colored formazan crystals were dissolved in DMSO, and absorbance was recorded at wavelengths 570/640 nm using the Bio-Rad Benchmark Plus Microplate Reader. The percent of viable cells was calculated ODtreated cells/ODcontrol cell wells × 100.
(In general: Tetrazolium dyes change colour on reduction, which living cells bring about.)

For another assay, the system named is T24 cells. Nature of the assay: MTT antiproliferative assay. Type of assay: cell-based, human. The conditions noted are these: for IC50: Homo sapiens, T-24, MTT, 72 h, read-out: IC50 (Mean ± SD), T24; for SI (selectivity index), T24: IC50 MCF-12A / IC50 T24. Here is the method:
as §1, §2

The subject of the next assay is MCF-12A. Nature of the assay: MTT assay, non-tumorigenic breast epithelial cell line. Type of assay: cell-based, human. The conditions noted are these: Homo sapiens, MCF-12A; MTT, 72 h, non-tumorigenic cells; read-out: IC50 (Mean ± SD), MCF-12A. Here is the method:
as §1, §2

The test system of assay [2] is human bladder cancer cell lines T24 and 5637. The assay can be described thus: MTT antiproliferative activity, result in words. Type of assay: cell-based. The following applies: 72 h. Here is the method:
as §1
The antiproliferative activities of various compounds examined in this report were measured using the MTT (3-[4,5-dimethylthiazol-2-yl]-2,5-diphenyl-tetrazolium bromide) reduction assay, as previously described. […] The purple-colored formazan crystals were dissolved in DMSO, and absorbance was recorded at wavelengths 570/640 nm using the Bio-Rad Benchmark Plus Microplate Reader. The percent of viable cells was calculated ODtreated cells/ODcontrol cell wells × 100.

The test system of assay [3] is 5637 cells. The assay can be described thus: Annexin V-FITC/PI apoptosis flow cytometry. Type of assay: cell-based. The following applies: Homo sapiens, 24 h, read-out: Q3-3 (Q3, viable) cells. The protocol: (§3) The potential of cells treated with UA or 5c to undergo dose-dependent apoptosis was explored using quantitative flow cytometric analysis, as shown in Figure 4. Utilizing a kit that detects quantitative binding of Annexin V to externalized phosphatidyl serine during the apoptosis cascade and permeability of Propidium iodide (PI) in cells undergoing cell death, we determined the cells at various stages of cell death following 24h incubation with UA and 5c in various bladder cancer cells.
(§4) We used a fluorescence-based Annexin V binding assay to determine the fraction of the cell population undergoing early and late apoptosis due to the cytotoxicity of the drugs. Cells plated in a 60 mm dish overnight at 0.3 × 10^6 cells/well were incubated with the selected drug at several doses for 24 h. Subsequently, treated cells were labeled with FITC-Annexin V using a kit (eBioscience™ Annexin V Apoptosis Detection Kits; Invitrogen # 88-8005-72, Thermo Fisher Scientific, Seoul, Korea) as per the manufacturer’s instructions. Intact cell suspension labeled with FITC-Annexin V and PI was run on the NovoCyte Quanteon flow cytometer, and data were acquired in list mode. Acquired data were analyzed using NovoExpress software (version 1.6.1). Cells treated with Staurosporine (0.2 µM) act as a positive control.
(A flow cytometer gives signals particle by particle.)

The next assay concerns MB49 cells. The assay can be described thus: Annexin V-FITC/PI apoptosis flow cytometry. Type of assay: cell-based, murine. The conditions noted are these: Mus musculus, MB49, 24 h, read-out: Q4-3 (Q3, viable) cells. Here is the method:
as §3, §4

As a reminder, the IC50 is the concentration that inhibits the measured activity by half. With `CC1CCC2(C(=O)OCCOC(=O)CCCCC3SCC4NC(=O)NC43)CCC3(C)C(=CCC4C5(C)CCC(O)C(C)(C)C5CCC43C)C2C1C` [Compound 5a, 2-((5-((3aS,4S,6aR)-2-Oxohexahydro-1H-thieno [3,4-d]imidazol-4-yl)pentanoyl)oxy) ethyl 3-hydroxy-urs-12-en-28-oate], the IC50 in the assay on 5637 cells [1] (Homo sapiens) came out at 39.3 ± 21.2 µM; in the assay with T24 cells it was 14.6 ± 4.97 µM; with MCF-12A, 626 ± 34.7 µM. Also, the “SI (selectivity index), 5637” value in the assay on 5637 cells [1] (IC50 MCF-12A / IC50 5637) was found to be 15.92. In addition, in the assay on T24 cells, the “SI (selectivity index), T24” value worked out at 42.96.
As to `CC1CCC2(C(=O)OCCCOC(=O)CCCCC3SCC4NC(=O)NC43)CCC3(C)C(=CCC4C5(C)CCC(O)C(C)(C)C5CCC43C)C2C1C` [Compound 5b, 3-((5-((3aS,4S,6aR)-2-Oxohexahydro-1H-thieno [3,4-d]imidazol-4-yl)pentanoyl)oxy) propyl 3-hydroxy-urs-12-en-28-oate], the “antiproliferative activity” value in assay [2] is reported as “ineffective”. The IC50 in the assay with 5637 cells [1] (Homo sapiens) is at least 10000 µM; with 5637 cells [1], above 10000 µM; in the assay on T24 cells it was 108 ± 24.4 µM; with MCF-12A, 73.33 ± 0.12 µM. The “SI (selectivity index), T24” value with T24 cells turned out to be 0.68.
As to `CC1CCC2(C(=O)OCCCCCCOC(=O)CCCCC3SCC4NC(=O)NC43)CCC3(C)C(=CCC4C5(C)CCC(O)C(C)(C)C5CCC43C)C2C1C` [Compound 5d, 6-((5-((3aS,4S,6aR)-2-Oxohexahydro-1H-thieno [3,4-d]imidazol-4-yl)pentanoyl)oxy) hexyl 3-hydroxy-urs-12-en-28-oate], in assay [2], the “antiproliferative activity” value is “largely inactive”. Further, the IC50 with 5637 cells [1] (Homo sapiens) is above 10000 µM; in the assay with T24 cells, 582 µM; with MCF-12A, 3820 µM. The “SI (selectivity index), T24” value in the assay with T24 cells is 6.57.
On to `CN[C@@H]1C[C@H]2O[C@@](C)([C@@H]1OC)n1c3ccccc3c3c4c(c5c6ccccc6n2c5c31)C(=O)NC4` [Stauro., Staurosporine], for which the values for the viability at 0.2 µM with 5637 cells [3] and in the assay with MB49 cells were 25.3% and 12.3%, respectively.
